The text below walks through data of publication PMC5435455 (ACS Chemical Biology, 2017).

The target of test [1] is T1, Pisum sativum agglutinin (PSA, pea lectin) (Lathyrus oleraceus, UniProt P02867).
T1 sequence (P02867 31-217): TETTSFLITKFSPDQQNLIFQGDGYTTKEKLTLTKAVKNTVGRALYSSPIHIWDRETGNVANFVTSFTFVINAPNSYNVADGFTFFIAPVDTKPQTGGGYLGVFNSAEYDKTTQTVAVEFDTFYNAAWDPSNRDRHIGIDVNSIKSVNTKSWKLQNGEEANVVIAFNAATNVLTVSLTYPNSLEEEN
T1 sequence (P02867 218-275): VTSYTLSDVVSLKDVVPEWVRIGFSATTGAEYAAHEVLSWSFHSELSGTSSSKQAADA
The test can be described thus: ITC at […] K. In kind it is binding.

The target of test [2] is T1, Pisum sativum agglutinin (PSA, pea lectin). Kind of test: ITC at […] K. In kind it is binding. The source holds these as a separate data set.

Read-outs that look alike come from different tables or passages of the source.

In general, Kd refers to the equilibrium constant for the complex coming apart. A lower Kd goes with higher affinity. Regarding `OC[C@H]1O[C@H](OC[C@H]2O[C@H](O)[C@@H](O)[C@@H](O[C@H]3O[C@H](CO)[C@@H](O)[C@H](O)[C@@H]3O)[C@@H]2O)[C@@H](O)[C@@H](O)[C@@H]1O` [compound 2, 3,6-di-O-(α-D-mannopyranosyl)-α-D-mannopyranose], the Kd in test [1] worked out at 621 ± 11 µM.

For `CO[C@H]1O[C@H](CO)[C@@H](O)[C@H](O)[C@@H]1O` [compound 1, methyl α-D-mannopyranoside], binding in test [2] was put at a Kd of 806 ± 32 µM.
